Patent publication US20110135774A1, “Process for Preparing a Plant Extract of Passiflora Alata and Use of Said Extract in Cosmetic and Pharmaceutical Compositions” (priority 2007, published 2011)

Columns and labels:
Format in all cases: cell-based
Settings in all cases: Fibroblast
IL-8 secretion [1] = assay: Inhibition of IL-8 secretion in human dermal fibroblasts stimulated with LPS or UVB (Example 7.2)
Procedure: (§1) Dermis-derived human fibroblasts were incubated with lipopolysaccharide (LPS) or UV to induce the secretion of pro-inflammatory markers IL-6 and IL-8. The anti-inflammatory potential of the sample was identified by the reduction in the secretion of the pro-inflammatory markers. Material used: Dermis-derived human fibroblasts, kept in culture until the tenth passage at most. Sterile-culture plates with 96 wells, non-sterile plates with 96 wells, conical tubes of 15 ml and 50 ml, radiation chamber with UVB lamp. 96-well plates were prepared with 2×10^4 cells/well in 100 μl μl of DMEM containing 10% SFB. The cells were incubated overnight in a CO2 oven. The culture medium was discarded and the wells were washed with 200 μl PBS. 100 μl of DMEM containing 1% SFB and the suitable stimuli were added. Incubation was carried out in a CO2 oven overnight. […] 100 μl of PBS and the suitable stimuli were added. […] After stimulation, supernatants were collected, stored at −20° C. and assessed by ELISA (described below). In order to keep cell viability after stimulation, the cells were incubated with a Neutral Red solution for 3 hours and, after washing with 200 μl of PBS, 200 μl of development solution were added, and the reading was performed at 540 nm. […] The quantification of pro-inflammatory markers was determined from the comparisons with the standard curves specifically constructed for IL-6 or IL-8. […]

IL-8 secretion [2] = assay: Inhibition of IL-8 secretion in human dermal fibroblasts (Example 7.1)
Procedure: (§2) The objective of this test was to assess the anti-inflammatory potential of in vitro extracts, using human dermal fibroblast cultures. The statistical significance (p<0.05) of the data was verified by the analysis of variance (One-Way ANOVA) followed by a Tukey multiple comparison using the SYSTAT 10 software.
(§3) Human fibroblasts derived from the dermis were incubated with lipopolysaccharide (LPS) of Escherichia coli to induce the secretion of pro-inflammatory citokines IL-6 and IL-8 (Interleukin 6 and 8). The anti-inflammatory potential of the sample was identified by the reduction in the secretion of the pro-inflammatory markers. • Material used: Dermis-derived human fibroblasts, kept in culture until the tenth passage at most. […]
(§4) After stimulation, supernatants were collected, stored at −20° C. and analysed by ELISA (described below). In order to keep cell viability after stimulation, the cells were incubated with a Neutral Red solution for 3 hours and after washing with 200 μl of PBS, 200 μl of development solution were added, and the reading was performed at 540 nm. […]
(§5) For the ELISA test, 96-well plates were used. The quantification of pro-inflammatory markers was determined from the comparisons with the standard curves specifically constructed for IL-6 or IL-8. […]

IL-6 secretion [3] = assay: Inhibition of IL-6 secretion in human dermal fibroblasts (Example 7.1)
Procedure: as §2, §3, §4, §5

IL-6 secretion [4] = assay: Inhibition of IL-6 secretion in human dermal fibroblasts stimulated with LPS or UVB (Example 7.2)
Procedure: as §1

[5] = LPS 10 ng/ml + 5 uM, reference LPS
[6] = 5 uM + LPS 10 ng/ml, reference LPS
[7] = 5 uM, no LPS, reference Control
[8] = light or radiation study, UVB 0.23 J/cm2 + 5 uM, reference UVB

C[C@@H]1C[C@H]2[C@@H]3CCC4=CC(=O)C=C[C@]4(C)[C@@]3(F)[C@@H](O)C[C@]2(C)[C@@]1(O)C(=O)CO [Dexamethasone]
inhibition at 5 µM (IL-8 secretion [1]; [5]): 82%
inhibition at 5 µM (IL-8 secretion [2]; [6]): 53%
inhibition at 5 µM (IL-8 secretion [2]; [7]): 68%
inhibition at 5 µM (IL-6 secretion [3]; [6]): 96%
inhibition at 5 µM (IL-6 secretion [3]; [7]): 71%
inhibition at 5 µM (IL-6 secretion [4]; [5]): 94%

C[C@]12CCC(=O)C=C1CC[C@@H]1[C@@H]2[C@@H](O)C[C@@]2(C)[C@H]1CC[C@]2(O)C(=O)CO [Hydrocortisone]
inhibition at 5 µM (IL-8 secretion [1]; [8]): 79%
inhibition at 5 µM (IL-6 secretion [4]; [8]): 71%
